# Experimental data published in US20110104662A1, “Methods of Detecting Inhibitors of VIF-Mediated APOBEC3G Degradation and HIV” (RIGEL PHARMACEUTICALS, INC., priority 2007, published 2011).
# Where a SMILES comes first, the peptide text is derived from it. The star is where a group is joined. Cbz = O=C(OCc1ccccc1)*
# Experiments:
# A3G-luciferase (A3G-luc) [1] = assay: APOBEC3G-luciferase activity in virus supernatant of co-transfected 293T cells; assay type: cell-based; conditions: 10 uM MG132
# Source text: (§1) In all embodiments employing cotransfection of a wild-type or Δvif HIV genome together with an APOBEC3G-fluorescent reporter fusion, adjusting the relative ratio of plasmids encoding the wild-type (WT) or Δvif HIV genomes and A3G-luciferase (A3G-luc) for cotransfection in virus producer cells (e.g., 293T cells) is useful for achieving an optimal signal to background ratio and dynamic assay range for antiviral compound characterization. Adjusting the cotransfection ratio is also useful for obtaining a linear correlation between the fluorescent reporter (e.g., luciferase) signal and the level of A3G-fluorescent reporter protein detected by Western blotting. The luciferase activity ratio of (Δvif HIV+A3G-luc) over (WT HIV+A3G-luc) in both virus supernatant and 293T cell lysates was measured.
# (§2) 293T cells were seeded in 6-well plates at 500,000 cells/well density. On the second day, 4 μg of wild-type or delta vif HIV-1 construct and pcDNA3.1-APOBEC3G-luciferase construct plasmid DNA were co-transfected into 293T cells using Lipofectamine 2000 (Invitrogen). On the third day, cells were detached with trypsin and plated into 24-well plates at 300,000 cells/well density. On the fourth day, medium was replaced in each well with either 0.5% DMSP medium or with compound and 0.5% DMSO containing medium.
# Twenty hours post dosing, the culture supernatant from Example 5 was harvested and filtered through a 0.45μ filter. Twenty microliters of virus supernatant from each sample were transferred into a 96-Well plate. 30 μL of culture medium and 50 μL of Bright-Glo lysis buffer (Promega), were added to each well, followed by 50 μL of Bright-Glo Substrate (Promega). The luciferase activity from the virus supernatant was then detected using a Top Count reader (Perkin Elmer). The concentration of virus particles in the supernatant was determined by p24 ELISA (Perkin Elmer). The luciferase activity of the virus supernatant was then normalized relative to the concentration of virus particles by dividing the background corrected luciferase light units by the p24 values.
# [2] = test system: Vif-mediated APOBEC3G degradation; assay: Cell-based screening assay, Vif/APOBEC3G-luciferase HeLa line; parameters: species or system HIV; conditions: 10 μM MG132 for 24 hours; selected blasticidin-resistant Vif/APOBEC3G-luciferase HeLa clone
# Source text: Inhibitors of Vif-mediated APOBEC3G degradation were screened using a cell-based assay. The assay uses HeLa cells that stably expresses Vif and APOBEC3G fused at its C-terminus to firefly luciferase. Under steady-state conditions, there is very little luciferase activity. When degradation of the APOBEC3G-luciferase fusion is inhibited, a significant increase in the luciferase activity is observed.
# Construction of screening line (Vif/APOBEC3G-luciferase HeLa line). HeLa cells were cotransfected with a 1:1 ratio of pcDNA6-Vif and pcDNA3.1-APOBEC3G-luciferase plasmids using Fugene transfection reagent. Twenty-four hours after transfection, cells were trypsinized and different dilutions plated on 10 cm dishes. After attachment, stable transfectants were selected using medium containing 10 μg/ml blasticidin S. The blasticidin resistance gene is carried in the pcDNA6-Vif plasmid. Individual clones were plated in duplicate 96-well plates, treated with either DMSO or 10 μM MG132 for 24 hours, and then assayed for luciferase activity. […] The presence of Vif and APOBEC3G-luciferase proteins was confirmed by treating cells with 10 μM MG132 overnight and analyzing cell lysates for both Vif and APOBEC3G-luciferase by western blotting (See FIG. 7B).
# A3G-luciferase (A3G-luc) [3] = assay: APOBEC3G-luciferase activity in 293T cell lysate of co-transfected virus producer cells; assay type: cell-based; conditions: 10 uM MG132
# Source text: as §1, §2
# Twenty hours post dosing, the virus producing 293T cells of Example 5 were lysed with 200 μL of Bright-Glo lysis buffer in 24-well plates. Cell lysates were diluted 1:100 in PBS. 10 μL of each lysate sample were transferred to small well 96-well plates and 10 μL of Bright-Glo substrate were added to each well. The luciferase activity from the cell lysates was then detected using a Top Count reader. The total protein concentration was determined using the Quant-IT Protein Assay Kit (Molecular Probes). The luciferase activity was normalized relative to total cellular protein by dividing the background corrected luciferase light units by the total protein concentration.
# [4] = Experiment 1, co-transfection ratio 19:1
# [5] = Experiment 1, co-transfection ratio 39:1
# [6] = Experiment 1, co-transfection ratio 79:1
# [7] = Experiment 1, co-transfection ratio 159:1
# [8] = Experiment 2, co-transfection ratio 19:1
# [9] = Experiment 2, co-transfection ratio 39:1
# [10] = Experiment 2, co-transfection ratio 79:1
# [11] = Experiment 2, co-transfection ratio 159:1
compound,measurement,setting,value
CC(C)C[C@@H](C=O)NC(=O)[C@H](CC(C)C)NC(=O)[C@H](CC(C)C)NC(=O)OCc1ccccc1 [MG132] (Cbz-Leu-Leu-Leu-aldehyde),"RLU ratio (delta vif HIV + A3G-luc/WT HIV + A3G-luc), Virus sup. (RLU)",A3G-luciferase (A3G-luc) [1]; [4],3.2
same,"RLU ratio (delta vif HIV + A3G-luc/WT HIV + A3G-luc), Virus sup. (RLU)",A3G-luciferase (A3G-luc) [1]; [5],5.5
same,"RLU ratio (delta vif HIV + A3G-luc/WT HIV + A3G-luc), Virus sup. (RLU)",A3G-luciferase (A3G-luc) [1]; [6],5.9
same,"RLU ratio (delta vif HIV + A3G-luc/WT HIV + A3G-luc), Virus sup. (RLU)",A3G-luciferase (A3G-luc) [1]; [7],4.7
same,"RLU ratio (delta vif HIV + A3G-luc/WT HIV + A3G-luc), Virus sup. (RLU)",A3G-luciferase (A3G-luc) [1]; [8],9.2
same,"RLU ratio (delta vif HIV + A3G-luc/WT HIV + A3G-luc), Virus sup. (RLU)",A3G-luciferase (A3G-luc) [1]; [9],3.9
same,"RLU ratio (delta vif HIV + A3G-luc/WT HIV + A3G-luc), Virus sup. (RLU)",A3G-luciferase (A3G-luc) [1]; [10],16.8
same,"RLU ratio (delta vif HIV + A3G-luc/WT HIV + A3G-luc), Virus sup. (RLU)",A3G-luciferase (A3G-luc) [1]; [11],9.2
same,window in luciferase activity between DMSO and MG132,[2],at least a ten-fold window in luciferase activity
same,"RLU ratio (delta vif HIV + A3G-luc/WT HIV + A3G-luc), 293 T cell lysate (RLU)",A3G-luciferase (A3G-luc) [3]; [4],2.6
same,"RLU ratio (delta vif HIV + A3G-luc/WT HIV + A3G-luc), 293 T cell lysate (RLU)",A3G-luciferase (A3G-luc) [3]; [5],2.4
same,"RLU ratio (delta vif HIV + A3G-luc/WT HIV + A3G-luc), 293 T cell lysate (RLU)",A3G-luciferase (A3G-luc) [3]; [6],3.7
same,"RLU ratio (delta vif HIV + A3G-luc/WT HIV + A3G-luc), 293 T cell lysate (RLU)",A3G-luciferase (A3G-luc) [3]; [7],6.8
same,"RLU ratio (delta vif HIV + A3G-luc/WT HIV + A3G-luc), 293 T cell lysate (RLU)",A3G-luciferase (A3G-luc) [3]; [8],1.4
same,"RLU ratio (delta vif HIV + A3G-luc/WT HIV + A3G-luc), 293 T cell lysate (RLU)",A3G-luciferase (A3G-luc) [3]; [9],1.8
same,"RLU ratio (delta vif HIV + A3G-luc/WT HIV + A3G-luc), 293 T cell lysate (RLU)",A3G-luciferase (A3G-luc) [3]; [10],2.9
same,"RLU ratio (delta vif HIV + A3G-luc/WT HIV + A3G-luc), 293 T cell lysate (RLU)",A3G-luciferase (A3G-luc) [3]; [11],8.7
